Data set [1] deals with αVβ3 Integrin (Homo sapiens, UniProt P05106+P06756). The note with it: Table 1 adapted from Zhang et al.; not among the SPR-measured affinities; cited from earlier work.
Data set [2] addresses IgG Anti-HIV. The class given is binding.
Data set [3] deals with IgG Anti-Ebola. The class given is binding.
The target of data set [4] is IgE Anti-DNP. The class given is binding, mouse.
Data set [5] has as its system DNA template. As to the kind of experiment: Rolling-circle amplification of a DNA template, DNA gel of polymerization product. Conditions: polymerase bound by two streptavidin molecules; versus native enzyme with exonuclease activity deleted. The class given is biochemical. The procedure:
To confirm that the modified polymerase was still active, rolling-circle amplification of a DNA template was carried out with the molecule 35 as bound by two streptavidin molecules.

Non-standard residues stand in square brackets, D forms with d.

The values below come from patent US12351855B2, “Bioelectronic circuits, systems and methods for preparing and using them” (priority 2019, dated 2025).

Sequence of αVβ3 Integrin (P06756 31-889 limits assumed): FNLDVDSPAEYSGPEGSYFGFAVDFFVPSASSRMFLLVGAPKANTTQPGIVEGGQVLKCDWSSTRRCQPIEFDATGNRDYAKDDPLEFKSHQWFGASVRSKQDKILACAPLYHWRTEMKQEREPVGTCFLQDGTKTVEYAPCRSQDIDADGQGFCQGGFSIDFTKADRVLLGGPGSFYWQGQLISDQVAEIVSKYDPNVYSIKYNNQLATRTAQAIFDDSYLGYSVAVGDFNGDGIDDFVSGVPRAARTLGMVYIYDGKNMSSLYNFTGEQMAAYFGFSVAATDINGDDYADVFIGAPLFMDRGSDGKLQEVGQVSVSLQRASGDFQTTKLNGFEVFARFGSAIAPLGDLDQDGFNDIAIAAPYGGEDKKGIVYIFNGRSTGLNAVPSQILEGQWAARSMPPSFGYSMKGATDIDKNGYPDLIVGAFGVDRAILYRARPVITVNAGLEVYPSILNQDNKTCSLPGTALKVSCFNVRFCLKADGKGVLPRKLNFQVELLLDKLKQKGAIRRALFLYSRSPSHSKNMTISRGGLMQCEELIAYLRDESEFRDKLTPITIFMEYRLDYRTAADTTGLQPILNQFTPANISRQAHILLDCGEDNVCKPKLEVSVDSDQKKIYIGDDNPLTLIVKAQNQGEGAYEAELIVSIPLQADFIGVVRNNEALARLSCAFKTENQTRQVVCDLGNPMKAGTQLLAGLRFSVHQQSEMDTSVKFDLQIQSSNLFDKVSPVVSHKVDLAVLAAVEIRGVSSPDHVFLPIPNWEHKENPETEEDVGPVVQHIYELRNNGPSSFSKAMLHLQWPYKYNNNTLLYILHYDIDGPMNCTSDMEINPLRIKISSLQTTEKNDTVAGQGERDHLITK
Sequence of αVβ3 Integrin (P06756 891-1048 partner limits assumed): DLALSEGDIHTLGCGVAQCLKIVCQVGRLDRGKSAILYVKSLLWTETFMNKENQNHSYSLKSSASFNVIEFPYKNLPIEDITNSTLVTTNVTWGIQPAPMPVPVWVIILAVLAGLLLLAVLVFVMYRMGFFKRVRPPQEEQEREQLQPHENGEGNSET
Sequence of αVβ3 Integrin (P05106 27-788): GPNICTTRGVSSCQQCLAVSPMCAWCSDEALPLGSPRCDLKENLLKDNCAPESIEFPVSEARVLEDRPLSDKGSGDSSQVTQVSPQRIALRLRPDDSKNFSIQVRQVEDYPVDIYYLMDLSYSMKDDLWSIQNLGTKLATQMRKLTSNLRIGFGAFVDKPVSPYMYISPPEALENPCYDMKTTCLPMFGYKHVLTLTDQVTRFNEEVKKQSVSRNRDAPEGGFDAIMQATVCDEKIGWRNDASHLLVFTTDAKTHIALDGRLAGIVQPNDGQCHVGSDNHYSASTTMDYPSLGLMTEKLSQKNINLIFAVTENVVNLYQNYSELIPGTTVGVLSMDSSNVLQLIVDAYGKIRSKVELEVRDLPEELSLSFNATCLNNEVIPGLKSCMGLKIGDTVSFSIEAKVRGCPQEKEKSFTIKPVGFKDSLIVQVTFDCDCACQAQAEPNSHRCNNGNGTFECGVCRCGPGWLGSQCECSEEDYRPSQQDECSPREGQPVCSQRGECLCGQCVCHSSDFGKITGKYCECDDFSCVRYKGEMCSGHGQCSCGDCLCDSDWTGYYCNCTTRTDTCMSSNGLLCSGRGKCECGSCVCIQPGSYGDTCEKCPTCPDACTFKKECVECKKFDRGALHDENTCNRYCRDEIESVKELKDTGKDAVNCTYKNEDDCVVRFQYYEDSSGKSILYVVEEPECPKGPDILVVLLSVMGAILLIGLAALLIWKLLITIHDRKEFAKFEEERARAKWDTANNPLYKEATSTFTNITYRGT

Take cyclo(RGD[dF]C) [Cyclic RGDfC]: in data set [1], the Kd was ~10 nM.
CALDRWEKIRLR: binding in data set [2] was put at a Kd of 240 nM.
As to CHNTPVYKLDISEATQV, the affinity in data set [3], expressed as Kd, was 1400 nM.
For the molecule HSCH2CH2-dinitrophenol, the Kd in data set [4] is 65 nM.

B1: bis-biotinylated polymerase: exonuclease-deleted ϕ29 polymerase with biotinylated Avitags inserted between G111/K112 and E279/D280 (protein)
chain: MKHMPRKMYSCAFATTTKVEDCRVWAYGYMNIEDHSEYKIGNSLDEFMAWVLKVQADLYFHNLKFDGAFIINWLERNGFKWSADGLPNTYNTIISRMGQWYMIDICLGYKGGLNDIFEAQKIEWHEKRKIHTVIYDSLKKLPFPVKKIAKDFKLTVLKGDIDYHKERPVGYKITPEEYAYIKNDIQIIAEALLIQFKQGLDRMTAGSDSLKGFKDIITTKKFKKVFPTLSLGLDKEVRYAYRGGFTWLNDRFKEKEIGEGMVFDVNSLYPAQMYSRLLPYGEPIVFEGKYVWDEGLNDIFEAQKIEWHEDYPLHIQHIRCEFELKEGYIPTIQIKRSRFYKGNEYLKSSGGEIADLWLSNVDLELMKEHYDLYNVEYISGLKFKATTGLFKDFIDKWTYIKTTSEGAIKQLAKLMLNSLYGKFASNPDVTGKVPYLKENGALGFRLGEEETKDPVYTPMGVFITAWARYTTITAAQACYDRIIYCDTDSIHLTGTEIPDVIKDIVDPKKLGYWAHESTFKRAKYLRQKTYIQDIYMKEVDGKLVEGSPDDYTDIKFSVKCAGMTDKIKKEVTFENFKVGFSRKMKPKPVQVPGGVVLVDDTFTIK
With B1, the polymerase activity entry in data set [5] is “comparable to that of the native enzyme”.

A word on the Kd: it is the free concentration of one partner at which half of the binding sites on the other are occupied at equilibrium, for simple one-to-one binding.
